These results are taken from patent US10443018B2, “Phenyl based compounds substituted with aldehyde moieties and their use in perfumery” (GIVAUDAN SA, priority 2014, dated 2019).

The test system of data set [1] is Cryopreserved hepatocytes from male rats (Sprague Dawley). In words: In vitro metabolism study in rat hepatocytes in suspension (GC-MS). The conditions noted are these: for Residual conc.: male, Sprague Dawley, rat, 4 h, 100 μM. On the procedure:
In order to study in vitro metabolism in rat hepatocytes, Lilial™ and compounds of the present invention may be incubated in the presence of rat hepatocytes in suspension. Reduction in the concentration of Lilial™ and the compounds of the present invention and formation of any of the corresponding benzoic acid derivatives may be analysed by GC-MS.
Cryopreserved hepatocytes from male rats (Sprague Dawley; Lifetechnologies) were defrozen, washed in Cyropreserved Hepatocytes Recovery Medium (CHRM; Lifetechnologies) and suspended in Williams E Medium (WEM; Lifetechnologies). Lilial™, or the compounds of the present invention (final concentration: 100 μM) were added to the cells (1×10^6 viable cells/ml) and suspensions were incubated up to 4 hours at 37° C. on a shaker in duplicate. Metabolism of testosterone was monitored as positive control. Decrease of the test compounds and formation of the corresponding benzoic acid derivative was determined by GC-MS analysis of methyl esters formed after derivatisation with trimethylsilyl diazomethane (Sigma-Aldrich) in methanol. The test compounds react with diazomethane yielding a methyl ketone which was used for the quantification of Lilial™ and the compound of formula (I). Metabolism was stopped with ice cold 1 M HCl, samples were extracted with tert-butyl methyl ether (MTBE) and analysed by GC-MS. Incubations containing testosterone as control were also stopped with ice cold 1 M HCl, centrifuged to separate the cells, filtrated and the decrease of testosterone analysed by LC-MS.

Data set [2] relates to primates. The conditions noted are these: cited from earlier work.
Data set [3] relates to mice. As to conditions: mouse, in vivo; cited from earlier work.
The test system of data set [4] is reproductive organs of male rats. As to conditions: rat, in vivo; cited from earlier work.
The subject of data set [5] is guinea-pigs. As to conditions: guinea pig, in vivo; cited from earlier work.
For data set [6], the system named is reproductive organs of dogs. As to conditions: dog, in vivo; cited from earlier work.

With `C[C@]12CC[C@H]3[C@@H](CCC4=CC(=O)CC[C@@]43C)[C@@H]1CC[C@@H]2O` [testosterone], the “decrease of testosterone (positive control)” value in data set [1] (rat hepatocytes, LC-MS) is on record as “rapid decrease”.
`Cc1ccc(CCC=O)c(CC(C)C)c1` came in with a Residual conc. in data set [1] of 0 µM.
Consider `CC(C=O)Cc1ccc(C(C)(C)C)cc1` (stereo not drawn) [Lilial, 3-(4-tert-butylphenyl)-2-methylpropanal], for which the “effects in toxicity studies” value in data set [2], in data set [3] and in data set [5] was “No effects” throughout. Further, the “toxic effects on the reproductive organs” value in data set [4] and in data set [6] was “toxic effects” in each case. In addition, the Residual conc. in data set [1] was determined as 0 µM.
As to `Cc1cc(CCC=O)cc(CC(C)C)c1` [Compound 1, 3-(3-Isobutyl-5-methylphenyl)propanal], the Residual conc. in data set [1] was determined as 1.5 µM.
